Tested on: HEK293T cells carrying the ATF4 luciferase reporter
Test: ATF4-Luc assay, in vitro model of Vanishing Cell White Matter Disease (VWMD)
Type: cell-based
Conditions: Homo sapiens, HEK-293T, 1 μg/mL tunicamycin, 7 hours, One Glo luminescence
In short: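 Stable HEK293T line with human ATF4 5′-UTR–firefly luciferase reporter treated with 1 μg/mL tunicamycin plus 200 nM compound for 7 h. Luminescence read; EC50 derived.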

Row | Compound | EC50 [nM]
1 | Cn1ccc(C(=O)NC23CC(NC(=O)COc4ccc(Cl)c(F)c4)(C2)C3)n1 [Compound 389, N-{3-[2-(4-chloro-3-fluorophenoxy)acetamido]bicyclo[1.1.1]pentan-1-yl}-1-methyl-1H-pyrazole-3-carboxamide] | 250 to 1000
2 | CC(C)n1ccc(C(=O)NC23CC(NC(=O)COc4ccc(Cl)c(F)c4)(C2)C3)n1 [Compound 819, N-{3-[2-(4-chloro-3-fluorophenoxy)acetamido]bicyclo[1.1.1]pentan-1-yl}-1-(propan-2-yl)-1H-pyrazole-3-carboxamide] | 250 to 1000
3 | Cc1cc(C(=O)NC23CCC(NC(=O)COc4ccc(Cl)c(F)c4)(CC2)C(O)C3)n(C)n1 (stereo not drawn) [Compound 447, N-{4-[2-(4-chloro-3-fluorophenoxy)acetamido]-3-hydroxybicyclo[2.2.2]octan-1-yl}-1,3-dimethyl-1H-pyrazole-5-carboxamide] | 50 to 250
4 | O=C(COc1ccc(Cl)c(F)c1)NC12CCC(NC(=O)c3cnc(C(F)(F)F)cn3)(CC1)C[C@@H]2O [Compound 652, N-{(3S)-4-[2-(4-chloro-3-fluorophenoxy)acetamido]-3-hydroxybicyclo[2.2.2]octan-1-yl}-5-(trifluoromethyl)pyrazine-2-carboxamide] | < 50
5 | CCn1ccc(C(=O)NC23CC(NC(=O)COc4ccc(Cl)c(F)c4)(C2)C3)cc1=O [Compound 405, N-{3-[2-(4-chloro-3-fluorophenoxy)acetamido]bicyclo[1.1.1]pentan-1-yl}-1-ethyl-2-oxo-1,2-dihydropyridine-4-carboxamide] | > 2000
6 | Cn1cc2ccnc(NC34CC(NC(=O)COc5ccc(Cl)c(F)c5)(C3)C4)c2n1 [Compound 493, 2-(4-chloro-3-fluorophenoxy)-N-{3-[(2-methyl-2H-pyrazolo[3,4-c]pyridin-7-yl)amino]bicyclo[1.1.1]pentan-1-yl}acetamide] | 50 to 250
7 | O=C(COc1ccc(Cl)c(F)c1)NC12CCC(NC(=O)c3ccsn3)(CC1)C[C@@H]2O [Compound 695, N-{(3S)-4-[2-(4-chloro-3-fluorophenoxy)acetamido]-3-hydroxybicyclo[2.2.2]octan-1-yl}-1,2-thiazole-3-carboxamide] | < 50
8 | O=C(COc1ccc(Cl)c(Cl)c1)NC12CC(NC(=O)c3ccccc3)(C1)C2 [Compound 521, N-{3-[2-(3,4-dichlorophenoxy)acetamido]bicyclo[1.1.1]pentan-1-yl}benzamide] | 50 to 250
9 | CCNc1ccc(C(=O)NC23CC(NC(=O)COc4ccc(Cl)c(F)c4)(C2)C3)nc1 [Compound 269, N-{3-[2-(4-chloro-3-fluorophenoxy)acetamido]bicyclo[1.1.1]pentan-1-yl}-5-(ethylamino)pyridine-2-carboxamide] | 250 to 1000
10 | Cn1nc(C(=O)NC23CC(NC(=O)COc4ccc(Cl)c(F)c4)(C2)C3)c2ccccc21 [Compound 823, N-{3-[2-(4-chloro-3-fluorophenoxy)acetamido]bicyclo[1.1.1]pentan-1-yl}-1-methyl-1H-indazole-3-carboxamide] | > 2000
11 | O=C(COc1ccc(Cl)c(F)c1)NC12CCC(NC(=O)c3cc4nccnc4s3)(CC1)CC2O (stereo not drawn) [Compound 627, N-{4-[2-(4-chloro-3-fluorophenoxy)acetamido]-3-hydroxybicyclo[2.2.2]octan-1-yl}thieno[2,3-b]pyrazine-6-carboxamide] | > 2000
12 | Cc1ncc(C(=O)NC23CC(NC(=O)COc4ccc(Cl)c(Cl)c4)(C2)C3)s1 [Compound 585, N-{3-[2-(3,4-dichlorophenoxy)acetamido]bicyclo[1.1.1]pentan-1-yl}-2-methyl-1,3-thiazole-5-carboxamide] | 50 to 250
13 | O=C(COc1ccc(Cl)c(F)c1)NC12CC(NC(=O)c3ccc(C(F)(F)F)cn3)(C1)C2 [Compound 120, N-{3-[2-(4-chloro-3-fluorophenoxy)acetamido]bicyclo[1.1.1]pentan-1-yl}-5-(trifluoromethyl)pyridine-2-carboxamide] | 50 to 250
14 | CCn1nc(C)cc1C(=O)NC12CC(NC(=O)COc3ccc(Cl)c(F)c3)(C1)C2 [Compound 359, N-{3-[2-(4-chloro-3-fluorophenoxy)acetamido]bicyclo[1.1.1]pentan-1-yl}-1-ethyl-3-methyl-1H-pyrazole-5-carboxamide] | 250 to 1000
15 | O=C(COc1ccc(Cl)c(F)c1)NC12CC(NC(=O)c3cnc(C(F)F)cn3)(C1)C2 [Compound 134, N-{3-[2-(4-chloro-3-fluorophenoxy)acetamido]bicyclo[1.1.1]pentan-1-yl}-5-(difluoromethyl)pyrazine-2-carboxamide] | < 50
16 | N#Cc1ccc(C(=O)NC23CC(NC(=O)COc4ccc(Cl)c(F)c4)(C2)C3)s1 [Compound 885, N-{3-[2-(4-chloro-3-fluorophenoxy)acetamido]bicyclo[1.1.1]pentan-1-yl}-5-cyanothiophene-2-carboxamide] | > 2000
17 | Cc1nn(C)c(C(=O)NC23CCC(NC(=O)COc4ccc(Cl)c(F)c4)(CC2)C(O)C3)c1F (stereo not drawn) [Compound 517, N-{4-[2-(4-chloro-3-fluorophenoxy)acetamido]-3-hydroxybicyclo[2.2.2]octan-1-yl}-4-fluoro-1,3-dimethyl-1H-pyrazole-5-carboxamide] | 50 to 250

Row | Compound | EC50 [nM]
18 | Cc1cc2c(NC34CC(NC(=O)COc5ccc(Cl)c(F)c5)(C3)C4)nccn2n1 [Compound 394, 2-(4-chloro-3-fluorophenoxy)-N-{3-[(2-methylpyrazolo[1,5-a]pyrazin-4-yl)amino]bicyclo[1.1.1]pentan-1-yl}acetamide] | < 50
19 | Cc1cc(C(=O)NC23CC(NC(=O)COc4ccc(Cl)c(F)c4)(C2)C3)on1 [Compound 295, N-{3-[2-(4-chloro-3-fluorophenoxy)acetamido]bicyclo[1.1.1]pentan-1-yl}-3-methyl-1,2-oxazole-5-carboxamide] | 250 to 1000
20 | O=C(COc1ccc(Cl)c(F)c1)NC12CC(NC(=O)c3noc4ccccc34)(C1)C2 [Compound 346, N-{3-[2-(4-chloro-3-fluorophenoxy)acetamido]bicyclo[1.1.1]pentan-1-yl}-1,2-benzoxazole-3-carboxamide] | 250 to 1000
21 | COc1cc(OC)nc(C(=O)NC23CC(NC(=O)COc4ccc(Cl)c(F)c4)(C2)C3)n1 [Compound 116, N-{3-[2-(4-chloro-3-fluorophenoxy)acetamido]bicyclo[1.1.1]pentan-1-yl}-4,6-dimethoxypyrimidine-2-carboxamide] | > 2000
22 | O=C(COc1ccc(Cl)c(F)c1)NC12CC(NC(=O)c3cncc(CO)c3)(C1)C2 [Compound 453, N-{3-[2-(4-chloro-3-fluorophenoxy)acetamido]bicyclo[1.1.1]pentan-1-yl}-5-(hydroxymethyl)pyridine-3-carboxamide] | 1000 to 2000
23 | O=C(COc1ccc(Cl)c(F)c1)NC12CCC(NC(=O)c3ccc(C(F)(F)F)cn3)(CC1)C[C@@H]2O [Compound 728, N-{(3S)-4-[2-(4-chloro-3-fluorophenoxy)acetamido]-3-hydroxybicyclo[2.2.2]octan-1-yl}-5-(trifluoromethyl)pyridine-2-carboxamide] | < 50
24 | O=C(COc1ccc(Cl)c(F)c1)NC12CC(NC(=O)c3cnc(-c4ccc(C(F)(F)F)nc4)o3)(C1)C2 [Compound 107, N-{3-[2-(4-chloro-3-fluorophenoxy)acetamido]bicyclo[1.1.1]pentan-1-yl}-2-[6-(trifluoromethyl)pyridin-3-yl]-1,3-oxazole-5-carboxamide] | < 50
25 | Cc1nc(C(=O)NC23CCC(NC(=O)COc4ccc(Cl)c(F)c4)(CC2)C(O)C3)ccc1F (stereo not drawn) [Compound 917, N-{4-[2-(4-chloro-3-fluorophenoxy)acetamido]-3-hydroxybicyclo[2.2.2]octan-1-yl}-5-fluoro-6-methylpyridine-2-carboxamide] | 50 to 250
26 | O=C(COc1ccc(Cl)c(F)c1)NC12CCC(NC(=O)c3cnc(C(F)(F)F)s3)(C1)C2 [Compound 647, N-{4-[2-(4-chloro-3-fluorophenoxy)acetamido]bicyclo[2.1.1]hexan-1-yl}-2-(trifluoromethyl)-1,3-thiazole-5-carboxamide] | 250 to 1000
27 | CC(=O)Nc1cncc(C(=O)NC23CC(NC(=O)COc4ccc(Cl)c(F)c4)(C2)C3)c1 [Compound 822, 5-acetamido-N-{3-[2-(4-chloro-3-fluorophenoxy)acetamido]bicyclo[1.1.1]pentan-1-yl}pyridine-3-carboxamide] | > 2000
28 | O=C(COc1ccc(Cl)c(Cl)c1)NC12CC(NC(=O)c3cnc(C(F)F)cn3)(C1)C2 [Compound 201, N-{3-[2-(3,4-dichlorophenoxy)acetamido]bicyclo[1.1.1]pentan-1-yl}-5-(difluoromethyl)pyrazine-2-carboxamide] | < 50
29 | O=C(COc1ccc(C(F)F)c(F)c1)NC12CC(NC(=O)c3cnc(C(F)F)cn3)(C1)C2 [Compound 475, 5-(difluoromethyl)-N-(3-{2-[4-(difluoromethyl)-3-fluorophenoxy]acetamido}bicyclo[1.1.1]pentan-1-yl)pyrazine-2-carboxamide] | 50 to 250
30 | O=C(COc1ccc(Cl)c(F)c1)NC12CC(NC(=O)c3cccc(OC(F)F)c3)(C1)C2 [Compound 764, N-{3-[2-(4-chloro-3-fluorophenoxy)acetamido]bicyclo[1.1.1]pentan-1-yl}-3-(difluoromethoxy)benzamide] | > 2000
31 | CC(C)(O)c1cccc(C(=O)NC23CC(NC(=O)COc4ccc(Cl)c(F)c4)(C2)C3)c1 [Compound 386, N-{3-[2-(4-chloro-3-fluorophenoxy)acetamido]bicyclo[1.1.1]pentan-1-yl}-3-(2-hydroxypropan-2-yl)benzamide] | > 2000
32 | COc1cnc(C(=O)NC23CC(NC(=O)COc4ccc(Cl)c(F)c4)(C2)C3)cn1 [Compound 124, N-{3-[2-(4-chloro-3-fluorophenoxy)acetamido]bicyclo[1.1.1]pentan-1-yl}-5-methoxypyrazine-2-carboxamide] | 1000 to 2000
33 | CC(C)(C)c1cnc(C(=O)NC23CCC(NC(=O)COc4ccc(Cl)c(F)c4)(CC2)[C@@H](O)C3)cn1 [Compound 705, 5-tert-butyl-N-{(3S)-4-[2-(4-chloro-3-fluorophenoxy)acetamido]-3-hydroxybicyclo[2.2.2]octan-1-yl}pyrazine-2-carboxamide] | > 2000

Reference: patent US10913727B2, “Modulators of the integrated stress pathway” (Calico Life Sciences LLC, priority 2016, dated 2021)
